The source of these data is patent publication US12520844B2 (Bayer Aktiengesellschaft, priority 2020, dated 2026).

In general, chromatographic logP refers to lipophilicity estimated from chromatographic retention. High values mean higher lipophilicity, low ones lower lipophilicity.

The nature of the series: Measurement of Log P values by HPLC on reversed phase columns (EEC directive 79/831 Annex V.A8). It counts as physicochemical. The procedure:
Measurement of Log P values as provided herein was performed according to EEC directive 79/831 Annex V.A8 by HPLC (High Performance Liquid Chromatography) on reversed phase columns with the following methods: • ^[a] Log P value is determined by measurement of LC-UV, in an acidic range, with 0.1% formic acid in water and acetonitrile as eluent (linear gradient from 10% acetonitrile to 95% acetonitrile). • ^[b] Log P value is determined by measurement of LC-UV, in a neutral range, with 0.001 molar ammonium acetate solution in water and acetonitrile as eluent (linear gradient from 10% acetonitrile to 95% acetonitrile). • ^[c] Log P value is determined by measurement of LC-UV, in an acidic range, with 0.1% phosphoric acid and acetonitrile as eluent (linear gradient from 10% acetonitrile to 95% acetonitrile).
If more than one Log P value is available within the same method, all the values are given and separated by “+”.
Calibration was done with straight-chain alkan2-ones (with 3 to 16 carbon atoms) with known Log P values (measurement of Log P values using retention times with linear interpolation between successive alkanones). Lambda-max-values were determined using UV-spectra from 200 nm to 400 nm and the peak values of the chromatographic signals
As for `Cc1ncc(Oc2cccc(C3CC3)c2F)c(C(=O)NC2CCC(C)c3ccccc32)n1` (mixture of isomers) [Compound I-065], the LogP is 4.40^[a].
Same read-out and setting: to `Cc1ncc(Oc2cccc(C3CC3)c2F)c(C(=O)NC2CC23CCc2cc(Br)ccc23)n1` (mixture of isomers) [Compound I-091] belongs 4.73^[a]; to `Cc1nnc(Oc2cccc(C(F)(F)F)c2)c(C(=O)NCC(Cl)c2ccc(Cl)cc2Cl)n1` (racemic) [Compound I-020], 4.34^[a]; to `Cc1ncc(Oc2cccc(C3CC3)c2F)c(C(=O)NC2CCOc3ccc(F)cc32)n1` (racemic) [Compound I-030], 3.62^[a].
The same measure, in the same setting: to `Cc1ncc(Oc2cccc(C3CC3)c2F)c(C(=O)NC2CCSc3ccc(F)cc32)n1` (racemic) [Compound I-125] belongs 3.98^[a].
Turning to `Cc1ncc(Oc2cccc(C3CC3)c2F)c(C(=O)NCC(F)c2ccc(Cl)c(Cl)c2)n1` (racemic) [Compound I-127], the LogP was 4.38^[a].
Consider `Cc1ncc(Oc2cccc(C(F)(F)F)c2)c(C(=O)O)n1` [Compound 1-01, 2-methyl-5-[3-(trifluoromethyl)phenoxy]pyrimidine-4-carboxylic Acid], for which the chromatographic logP came out at 1.69.
Same read-out and setting: to `CCOC(=O)c1nc(C)nnc1Oc1cccc(C(F)(F)F)c1` [Compound 1-02, ethyl 3-methyl-6-[3-(trifluoromethyl)phenoxy]-1,2,4-triazine-5-carboxylate] belongs 3.18.
On to `O=C(O)c1nc(C2CC2)ncc1Oc1cccc(C(F)(F)F)c1` [Compound 1-03], for which the LogP is 2.49^[a].
For the compound `COc1ncc(Oc2cccc(C(F)(F)F)c2)c(C(=O)O)n1` [Compound 1-04], the LogP was 1.96^[a].
Turning to `CCOC(=O)c1nc(C2CC2)nnc1Oc1cccc(C(F)(F)F)c1` [Compound 1-05], the LogP is 3.95^[a].
Turning to `CCOC(=O)c1nc(C2CC2)nnc1Oc1cccc(Cl)c1F` [Compound 1-06], the LogP was 3.86^[a].
With `CCOC(=O)c1nc(C2CC2)nnc1Oc1cccc(Br)c1F` [Compound 1-07], the LogP is 3.93^[a].
Same read-out and setting: under `CCOC(=O)c1nc(C2CC2)nnc1Oc1cccc(C2CC2)c1F` [Compound 1-08] stands 4.19^[a].
Same read-out and setting: under `CCOC(=O)c1nc(C2CC2)nnc1Oc1cccc(C)c1F` [Compound 1-09] stands 3.78^[a].
On to `CCOC(=O)c1nc(C2CC2)nnc1Oc1cccc(Br)c1` [Compound 1-10], for which the LogP was 3.94^[a].
Still for that read-out and setting: to `C#Cc1cccc(Oc2nnc(C3CC3)nc2C(=O)OCC)c1` [Compound 1-11] belongs 3.59^[a].
Still for that read-out and setting: under `CCOC(=O)c1nc(C2CC2)nnc1Oc1cccc(OC)c1` [Compound 1-12] stands 3.37^[a]; under `O=C(O)c1nc(F)ncc1Oc1cccc(C(F)(F)F)c1` [Compound 1-13], 1.52^[a]; under `CCc1ncc(Cl)c(C(=O)NCC(F)(F)c2ccc(C)cc2C)n1` [Compound 3-01], 3.77^[a].
Still for that read-out and setting: to `Cc1ccc(C(F)(F)CNC(=O)c2nc(C3CC3)ncc2Br)c(C)c1` [Compound 3-02] belongs 4.08^[a]; to `CSc1ncc(Br)c(C(=O)NCC(F)(F)c2ccc(C)cc2C)n1` [Compound 3-03], 4.05^[a].
For the compound `Cc1ccc(C(F)(F)CNC(=O)c2nc(C)ncc2Br)c(C)c1` [Compound 3-04, 5-bromo-N-[2-(2,4-dimethylphenyl)-2,2-difluoroethyl]-2-methylpyrimidine-4-carboxamide], the chromatographic logP stood at 3.25.
Same read-out and setting: to `Cc1ncc(Oc2cccc(C(F)(F)F)c2)c(C(=O)NCC(F)(F)c2ccc(Cl)cc2)n1` [Compound I-002, N-[2-(4-chlorophenyl)-2,2-difluoroethyl]-2-methyl-5-[3-(trifluoromethyl)phenoxy]pyrimidine-4-carboxamide] belongs 4.04.
For `Cc1ccc(C(F)(F)CNC(=O)c2nc(C)ncc2Oc2cccc(C(F)(F)F)c2)c(C)c1` [Compound I-003], the LogP is 4.32^[a].
In the case of `Cc1ncc(Oc2cccc(C(F)(F)F)c2)c(C(=O)NCC(F)(F)c2ccc(Br)cc2Cl)n1` [Compound I-004], the LogP is 4.49^[a].
In turn, `Cc1nnc(Oc2cccc(C(F)(F)F)c2)c(C(=O)NCC(F)(F)c2ccc(Br)cc2Cl)n1` [Compound I-005, N-[2-(4-bromo-2-chlorophenyl)-2,2-difluoroethyl]-3-methyl-6-[3-(trifluoromethyl)phenoxy]-1,2,4-triazine-5-carboxamide] gave a chromatographic logP of 4.26.
On to `Cc1nnc(Oc2cccc(C(F)(F)F)c2)c(C(=O)NCC(F)(F)c2ccc(Cl)cc2)n1` [Compound I-006], for which the LogP is 3.85^[a].
On to `Cc1nnc(Oc2cccc(C(F)(F)F)c2)c(C(=O)NCC(F)(F)c2ccc(Cl)cc2Cl)n1` [Compound I-007], for which the LogP was 4.20^[a].
As to `Cc1ccc(C(F)(F)CNC(=O)c2nc(C)ncc2Oc2cccc(C(F)(F)F)c2)c(Cl)c1` [Compound I-008], the LogP was 4.37^[a].
As for `COc1ncc(Oc2cccc(C(F)(F)F)c2)c(C(=O)NCC(F)(F)c2ccc(C)cc2C)n1` [Compound I-009], the LogP was 4.46^[a].
Still for that read-out and setting: under `CCc1ncc(Oc2cccc(C(F)(F)F)c2)c(C(=O)NCC(F)(F)c2ccc(C)cc2C)n1` [Compound I-011] stands 4.89^[a].
In the case of `CSc1ncc(Oc2cccc(C(F)(F)F)c2)c(C(=O)NCC(F)(F)c2ccc(C)cc2C)n1` [Compound I-012], the LogP is 4.97^[a].
With `Cc1ccc(C(F)(F)CNC(=O)c2nc(C)ncc2Oc2cccc(Cl)c2)c(C)c1` [Compound I-013], the LogP was 4.30^[a].
Take `Cc1ccc(C(F)(F)CNC(=O)c2nc(C3CC3)ncc2Oc2cccc(Cl)c2)c(C)c1` [Compound I-014]: the LogP is 5.00^[a].
For `Cc1ccc(C(F)(F)CNC(=O)c2nc(C)ncc2Oc2cccc(C3CC3)c2)c(C)c1` [Compound I-015, 5-(3-cyclopropylphenoxy)-N-[2-(2,4-dimethylphenyl)-2,2-difluoroethyl]-2-methylpyrimidine-4-carboxamide], the chromatographic logP is 4.38.
Regarding `Cc1ncc(Oc2cccc(C3CC3)c2F)c(C(=O)NCCc2ncc(Cl)cn2)n1` [Compound I-016], the LogP is 2.72^[a].
As for `Cc1ncc(Oc2cccc(C3CC3)c2F)c(C(=O)N[C@H]2CCOc3ccc(F)cc32)n1` [Compound I-017], the LogP was 3.62^[a].
On to `Cc1ncc(Oc2cccc(C3CC3)c2F)c(C(=O)NCCc2ccc(C(F)(F)F)cn2)n1` [Compound I-018], for which the LogP is 3.31^[a].
For `COc1cccc(Oc2cnc(C)nc2C(=O)NCC(F)(F)c2ccc(C)cc2C)c1` [Compound I-019], the LogP was 3.76^[a].
Still for that read-out and setting: under `Cc1ccc(C(F)(F)CNC(=O)c2nc(C)nnc2Oc2cccc(C3CC3)c2)c(Cl)c1` [Compound I-021] stands 4.19^[a]; under `CC(=O)c1cccc(Oc2cnc(C)nc2C(=O)NCC(F)(F)c2ccc(C)cc2C)c1` [Compound I-022], 3.40^[a]; under `Cc1ccc(C(F)(F)CNC(=O)c2nc(C)ncc2Oc2ccc3ccsc3c2)c(C)c1` [Compound I-023], 4.15^[a].
On to `Cc1ccc(C(F)(F)CNC(=O)c2nc(C3CC3)nnc2Oc2cccc(C(F)(F)F)c2)cc1C` [Compound I-024], for which the LogP is 4.66^[a].
On the same count and under the same terms, to `Cc1ccc(C(F)(F)CNC(=O)c2nc(C3CC3)nnc2Oc2cccc(Br)c2F)c(C)c1` [Compound I-025] belongs 4.66^[a]; to `Cc1ccc(C(F)(F)CNC(=O)c2nc(C)ncc2Oc2cc(F)c(F)cc2F)c(C)c1` [Compound I-026], 4.02^[a].
`Cc1ccc(C(F)=CNC(=O)c2nc(C3CC3)nnc2Oc2cccc(Br)c2F)c(C)c1` [Compound I-027]: the LogP is 5.36^[a].
On to `Cc1nnc(Oc2cccc(C3CC3)c2)c(C(=O)NCC(F)(F)c2ccc(Cl)cc2)n1` [Compound I-028], for which the LogP is 4.01^[a].
Still for that read-out and setting: to `Cc1ncc(Oc2cccc(C3CC3)c2F)c(C(=O)NCCc2ccc3[nH]ccc3c2)n1` [Compound I-029] belongs 3.21^[a]; to `Cc1nnc(Oc2cccc(C3CC3)c2)c(C(=O)NCC(F)(F)c2ccc(C)c(C)c2)n1` [Compound I-031], 4.19^[a]; to `Cc1ncc(Oc2cccc(C3CC3)c2F)c(C(=O)NCCc2cnc(C(F)(F)F)nc2)n1` [Compound I-032], 3.09^[a].
Regarding `Cc1cccc(Oc2cnc(C)nc2C(=O)NCC(F)(F)c2ccc(C)cc2C)c1` [Compound I-033], the LogP is 4.06^[a].
On the same count and under the same terms, to `CON(CCc1ccc(Cl)cc1Cl)C(=O)c1nc(C)ncc1Oc1cccc(C2CC2)c1F` [Compound I-034] belongs 4.91^[a]; to `Cc1ccc(C(F)(F)CNC(=O)c2nc(C)ncc2Oc2cccc(N(C)C)c2)c(C)c1` [Compound I-035], 3.88^[a].
On to `Cc1ccc(C(F)(F)CNC(=O)c2nc(C3CC3)nnc2Oc2cccc(C3CC3)c2F)c(C)c1` [Compound I-037], for which the LogP was 4.81^[a].
The same measure, in the same setting: to `C#Cc1cccc(Oc2nnc(C3CC3)nc2C(=O)N/C=C(\F)c2ccc(C)cc2C)c1` [Compound I-038] belongs 4.59^[a].
Consider `Cc1ccc(C(F)(F)CNC(=O)c2nc(C)ncc2Oc2cccc(Cl)c2F)c(C)c1` [Compound I-039], for which the LogP is 4.22^[a].
Turning to `Cc1ccc(/C(F)=C\NC(=O)c2nc(C3CC3)nnc2Oc2cccc(C3CC3)c2F)c(C)c1` [Compound I-040], the LogP is 5.49^[a].
